Measurements as given in patent US8569336B2, “Compounds for the treatment of inflammatory disorders” (priority 2008, dated 2013).

Molecular target: T1, purified catalytic domain of recombinant human TACE (rhTACEc) (Homo sapiens, UniProt P78536, N452Q/S266A)
T1 construct: 6xHis (C); made in house; host or cells: baculovirus/Hi5 insect cells
Assay: TACE kinetic assay: cleavage of internally quenched peptide substrate TNF-FRET 2 (Ki)
Assay type: biochemical
Settings: TNF-FRET 2 substrate, read-out: Ki

T1 sequence (P78536 215-477 S266A/N452Q): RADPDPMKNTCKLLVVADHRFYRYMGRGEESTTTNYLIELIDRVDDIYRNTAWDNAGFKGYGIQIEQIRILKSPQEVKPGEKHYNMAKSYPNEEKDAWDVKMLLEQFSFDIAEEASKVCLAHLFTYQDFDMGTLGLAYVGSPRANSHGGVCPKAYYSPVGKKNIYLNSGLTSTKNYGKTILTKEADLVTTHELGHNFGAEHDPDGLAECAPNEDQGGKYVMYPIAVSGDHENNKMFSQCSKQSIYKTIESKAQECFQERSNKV

SMILES | Ki [nM]
CNCc1ccc2oc([C@]3(CN4Cc5ccc(OC)cc5C4=O)NC(=O)NC3=O)cc2c1 [Compound 2185] | 3.99
COc1ccc2c(c1F)C(=O)N(C[C@@]1(c3cc4cc(C5(C)NC(=O)NC5=O)c(C)cc4o3)NC(=O)NC1=O)C2 (some centres unmarked) [Compound 1306] | 1.42
CCNc1nnc(-c2ccc3oc([C@]4(CN5Cc6ccc(OC)cc6C5=O)NC(=O)NC4=O)cc3n2)o1 [Compound 1906] | 0.77
COc1ccc2c(c1)C(=O)N(C[C@@]1(c3cc4cnc(O)cc4o3)NC(=O)NC1=O)C2 [Compound 2312] | 1.06
COc1ccc2c(c1)C(=O)N(C[C@@]1(c3cc4cc(-c5c(OC(C)C)noc5C)cnc4o3)NC(=O)NC1=O)C2 [Compound 501] | 0.844
COc1ccc2c(c1)C(=O)N(C[C@@]1(c3cc4nc(N5CCCNC5=O)ccc4o3)NC(=O)NC1=O)C2 [Compound 2134] | 0.467
COc1ccc2c(c1F)C(=O)N(C[C@@]1(c3cc4nc(N(c5cn[nH]c5)C5CCN(C)CC5)ccc4o3)NC(=O)NC1=O)C2 [Compound 1717] | 0.62
COc1ccc2c(c1)C(=O)N(C[C@@]1(c3cc4ncc(CO)cc4o3)NC(=O)NC1=O)C2 [Compound 2320] | 0.586
COc1ccc2c(c1)C(=O)N(C[C@@]1(c3cc4cc(-c5cnccc5O)ccc4o3)NC(=O)NC1=O)C2 [Compound 2199] | 1.96
COc1ccc2c(c1)C(=O)N(C[C@@]1(c3cc4cc(-c5cc(O)nc(N)n5)cnc4o3)NC(=O)NC1=O)C2 [Compound 302] | 0.53
COc1ccc2c(c1)C(=O)N(C[C@@]1(c3ccc(-c4ccc(C(=NO)N5CCN(C)CC5)cc4)cc3)NC(=O)NC1=O)C2 [Compound 2456] | 0.76
COc1ccc2c(c1)C(=O)N(C[C@@]1(c3cc4cc(C(=NO)N5CCOCC5)ccc4o3)NC(=O)NC1=O)C2 [Compound 2454] | 0.49
COc1ccc2c(c1)C(=O)N(C[C@@]1(c3cc4cc(C(=O)NO)ccc4o3)NC(=O)NC1=O)C2 [Compound 2402] | 0.5
COc1ccc2c(c1)C(=O)N(C[C@@]1(c3cc4cc(-c5cccc(O)c5)ncc4o3)NC(=O)NC1=O)C2 [Compound 2242] | 0.566
COc1ccc2c(c1)C(=O)N(C[C@@]1(c3cc4nc(C(=O)NCCN(C)C)ccc4o3)NC(=O)NC1=O)C2 [Compound 2466] | 0.867
COc1ccc2c(c1)C(=O)N(C[C@@]1(c3cc4cc(-c5ccc(N(C)C)nc5)ccc4o3)NC(=O)NC1=O)C2 [Compound 2197] | 0.849
COc1ccc2c(c1)C(=O)N(C[C@@]1(c3cc4nc(NC(=O)[C@@H](C)O)ccc4o3)NC(=O)NC1=O)C2 [Compound 2137] | 0.36

Continued by falling Ki, values first:

Ki [nM] | SMILES
3.15 | COc1ccc2c(c1)C(=O)N(C[C@@]1(c3ccc(C(=O)O)cc3)NC(=O)NC1=O)C2 [Compound 2404]
1.25 | O=C1NC(=O)[C@](CN2CCc3ccsc3C2=O)(c2cc3ncccc3o2)N1 [Compound 2494]
1.21 | COc1ccc2c(c1F)C(=O)N(C[C@@]1(c3cc4ccc5c(c4o3)CNC5=O)NC(=O)NC1=O)C2 [Compound 2498]
1.02 | COc1ccc2c(c1)C(=O)N(C[C@@]1(c3cc4cc(CNCC5CCNCC5)ccc4o3)NC(=O)NC1=O)C2 [Compound 2183]
0.762 | COc1ccc2c(c1)C(=O)N(C[C@@]1(c3cc4nc(Nc5c(C)cnn5C)ccc4o3)NC(=O)NC1=O)C2 [Compound 2111]
0.746 | COc1ccc2c(c1)C(=O)N(C[C@@]1(c3cc4cnc(-c5c(C)nn(C)c5C)cc4o3)NC(=O)NC1=O)C2 [Compound 2251]
0.713 | COc1ccc2c(c1)C(=O)N(C[C@@]1(c3cc4cc(CNCCN)ccc4o3)NC(=O)NC1=O)C2 [Compound 2179]
0.7 | COc1ccc2c(c1)C(=O)N(C[C@@]1(c3cc4nc(-c5ccc(F)c(C#N)c5)ccc4o3)NC(=O)NC1=O)C2 [Compound 1507]
0.568 | COc1ccc2c(c1F)C(=O)N(C[C@@]1(c3cc4c(C)nc(C)cc4o3)NC(=O)NC1=O)C2 [Compound 202]
0.41 | COc1ccc2c(c1F)C(=O)N(C[C@@]1(c3cc4c(Cl)nccc4o3)NC(=O)NC1=O)C2 [Compound 2216]
0.4 | COc1ccc2c(c1)C(=O)N(C[C@@]1(c3cc4cc(/C=N/O)ccc4o3)NC(=O)NC1=O)C2 [Compound 2420]

Tested on: TNF-α production from human whole blood
Assay: Inhibition of TNF-α production from human whole blood (hWBA), LPS stimulated, ELISA
Assay type: cell-based
Settings: Homo sapiens, 3.5 h, human whole blood diluted 1:1, LPS stimulated, 3.5 h, TNF-α by ELISA; read-out: hWBA (IC50)

SMILES | IC50 [nM]
CNCc1ccc2oc([C@]3(CN4Cc5ccc(OC)cc5C4=O)NC(=O)NC3=O)cc2c1 [Compound 2185] | 1040
COc1ccc2c(c1)C(=O)N(C[C@@]1(c3cc4nc(N5CCCNC5=O)ccc4o3)NC(=O)NC1=O)C2 [Compound 2134] | 115
COc1ccc2c(c1)C(=O)N(C[C@@]1(c3cc4cc(-c5cnccc5O)ccc4o3)NC(=O)NC1=O)C2 [Compound 2199] | 7360
COc1ccc2c(c1)C(=O)N(C[C@@]1(c3cc4cc(-c5cccc(O)c5)ncc4o3)NC(=O)NC1=O)C2 [Compound 2242] | 3390
COc1ccc2c(c1)C(=O)N(C[C@@]1(c3cc4nc(NC(=O)[C@@H](C)O)ccc4o3)NC(=O)NC1=O)C2 [Compound 2137] | 310

The next lines start with the values.

IC50 [nM] | SMILES
526 | COc1ccc2c(c1)C(=O)N(C[C@@]1(c3cc4cc(CNCC5CCNCC5)ccc4o3)NC(=O)NC1=O)C2 [Compound 2183]
1130 | COc1ccc2c(c1)C(=O)N(C[C@@]1(c3cc4nc(Nc5c(C)cnn5C)ccc4o3)NC(=O)NC1=O)C2 [Compound 2111]
2490 | COc1ccc2c(c1)C(=O)N(C[C@@]1(c3cc4cnc(-c5c(C)nn(C)c5C)cc4o3)NC(=O)NC1=O)C2 [Compound 2251]
376 | COc1ccc2c(c1)C(=O)N(C[C@@]1(c3cc4cc(CNCCN)ccc4o3)NC(=O)NC1=O)C2 [Compound 2179]
313 | COc1ccc2c(c1F)C(=O)N(C[C@@]1(c3cc4c(Cl)nccc4o3)NC(=O)NC1=O)C2 [Compound 2216]

Same assay, conditions: Homo sapiens, LPS-stimulated human whole blood, TNF-α by ELISA; read-out: hWBA (IC50)

SMILES | IC50 [nM]
COc1ccc2c(c1F)C(=O)N(C[C@@]1(c3cc4cc(C5(C)NC(=O)NC5=O)c(C)cc4o3)NC(=O)NC1=O)C2 (some centres unmarked) [Compound 1306] | 414
CCNc1nnc(-c2ccc3oc([C@]4(CN5Cc6ccc(OC)cc6C5=O)NC(=O)NC4=O)cc3n2)o1 [Compound 1906] | 606
COc1ccc2c(c1)C(=O)N(C[C@@]1(c3cc4cc(-c5c(OC(C)C)noc5C)cnc4o3)NC(=O)NC1=O)C2 [Compound 501] | 1590
COc1ccc2c(c1F)C(=O)N(C[C@@]1(c3cc4nc(N(c5cn[nH]c5)C5CCN(C)CC5)ccc4o3)NC(=O)NC1=O)C2 [Compound 1717] | 183
COc1ccc2c(c1)C(=O)N(C[C@@]1(c3cc4cc(-c5cc(O)nc(N)n5)cnc4o3)NC(=O)NC1=O)C2 [Compound 302] | 151

Second part, the compound after the results:

IC50 [nM] | SMILES
4120 | COc1ccc2c(c1)C(=O)N(C[C@@]1(c3cc4nc(-c5ccc(F)c(C#N)c5)ccc4o3)NC(=O)NC1=O)C2 [Compound 1507]
553 | COc1ccc2c(c1F)C(=O)N(C[C@@]1(c3cc4c(C)nc(C)cc4o3)NC(=O)NC1=O)C2 [Compound 202]

Same assay, conditions: Homo sapiens, human whole blood diluted 1:1, LPS stimulated, TNF-α by ELISA; read-out: hWBA (IC50)

SMILES | IC50 [nM]
COc1ccc2c(c1)C(=O)N(C[C@@]1(c3cc4cnc(O)cc4o3)NC(=O)NC1=O)C2 [Compound 2312] | 218
COc1ccc2c(c1)C(=O)N(C[C@@]1(c3cc4ncc(CO)cc4o3)NC(=O)NC1=O)C2 [Compound 2320] | 609
COc1ccc2c(c1)C(=O)N(C[C@@]1(c3ccc(-c4ccc(C(=NO)N5CCN(C)CC5)cc4)cc3)NC(=O)NC1=O)C2 [Compound 2456] | 1010
COc1ccc2c(c1)C(=O)N(C[C@@]1(c3cc4cc(C(=NO)N5CCOCC5)ccc4o3)NC(=O)NC1=O)C2 [Compound 2454] | 760
COc1ccc2c(c1)C(=O)N(C[C@@]1(c3cc4cc(C(=O)NO)ccc4o3)NC(=O)NC1=O)C2 [Compound 2402] | 256
COc1ccc2c(c1)C(=O)N(C[C@@]1(c3cc4nc(C(=O)NCCN(C)C)ccc4o3)NC(=O)NC1=O)C2 [Compound 2466] | 567

The next lines start with the values.

IC50 [nM] | SMILES
1710 | COc1ccc2c(c1)C(=O)N(C[C@@]1(c3ccc(C(=O)O)cc3)NC(=O)NC1=O)C2 [Compound 2404]
2250 | O=C1NC(=O)[C@](CN2CCc3ccsc3C2=O)(c2cc3ncccc3o2)N1 [Compound 2494]
166 | COc1ccc2c(c1F)C(=O)N(C[C@@]1(c3cc4ccc5c(c4o3)CNC5=O)NC(=O)NC1=O)C2 [Compound 2498]
328 | COc1ccc2c(c1)C(=O)N(C[C@@]1(c3cc4cc(/C=N/O)ccc4o3)NC(=O)NC1=O)C2 [Compound 2420]

Same assay, conditions: human whole blood diluted 1:1, LPS stimulated, 3.5 h, TNF-α by ELISA; read-out: hWBA (IC50)

IC50 [nM] | SMILES
2710 | COc1ccc2c(c1)C(=O)N(C[C@@]1(c3cc4cc(-c5ccc(N(C)C)nc5)ccc4o3)NC(=O)NC1=O)C2 [Compound 2197]
